One data set in a line: in vivo. To be noted: rat, in vivo, po. On the procedure: These compositions were also evaluated to determine their peroral toxicity to mammals by conventional methods. The animal selected for this experiment was the rat.
Data set [1] has as its system house flies (Musca domestica, L.). The data set is described as follows: whole plant or invertebrate. The note with it: po, 24 h, read-out: Insect Toxicity, % Kill at 250 ppm, HF.
The next data set deals with soybeans. In words: Phytotoxicity Test, soybeans. In kind it is in vivo. Details: key: A rating of 1 indicates no perceptible injury; ratings of 2, 3 and 4 indicate intermediate degrees of injury; ratings of 2, 3 and 4 indicate intermediate degrees of injury; ratings of 2, 3 and 4 indicate intermediate degrees of injury; 5 indicates the plant was dead. To be noted: ten days. On the procedure:
(§1) Suspensions of the test compounds were prepared by dissolving one gram of compound in 50 milliliters of acetone in which had been dissolved 0.1 gram (10 percent of the weight of compound) of an alkylphenoxy polyethoxyethanol surfactant, as an emulsifying or dispersing agent. The resulting solution was mixed into 150 milliliters of water to give roughly 200 milliliters of a suspension containing the compound in finely divided form. The thus-prepared stock suspension contained 0.5 percent by weight of compound. The test concentrations in parts per million by weight employed in the tests described hereinbelow were obtained by appropriate dilutions of the stock suspension with water. The test procedures were as follows:
(§2) Experiments were also conducted to determine the phytotoxicity of representative compositions with respect to healthy fresh plants. Solutions of the compounds were prepared as described above to provide a concentration of 2500 parts per million of the test compound. The test plants were sprayed in accordance with the procedure described above for the Mite Foliage Spray Test so as to deliver approximately 100 milliliters of test solution to the leaves of each plant tested. The sprayed plants and controls were set aside for approximately one hour to allow the solutions to dry and were then placed in the greenhouse. After ten days the plants were visually inspected to determine the extent of foliage injury. A rating of 1 indicates no perceptible injury; 5 indicates the plant was dead and ratings of 2, 3 and 4 indicate intermediate degrees of injury based upon the number and extent to which leaves were injured.

In data set [2] the test system is two-spotted mite (Tetranychus urticae Koch). The data set is described as follows: whole plant or invertebrate. The note with it: foliar, 144 h, read-out: Insect Toxicity, % Kill at 250 ppm, TSM.
Data set [3] deals with Mexican bean beetle (Epilachna varivestis, Muls.). The data set is described as follows: whole plant or invertebrate. To be noted: 72 h, read-out: Insect Toxicity, % Kill at 250 ppm, MBB.
In data set [4] the test system is bean aphid (Aphis fabae Scop.). The data set is described as follows: whole plant or invertebrate. To be noted: foliar, 24 h, read-out: Insect Toxicity, % Kill at 250 ppm, BA.
Another data set concerns green beans. The data set is described as follows: Phytotoxicity Test, green beans. Further details: key: A rating of 1 indicates no perceptible injury; ratings of 2, 3 and 4 indicate intermediate degrees of injury; ratings of 2, 3 and 4 indicate intermediate degrees of injury; ratings of 2, 3 and 4 indicate intermediate degrees of injury; 5 indicates the plant was dead. The note with it: ten days. In kind it is in vivo. On the procedure: as §1, §2

A further data set relates to cotton. The data set is described as follows: Phytotoxicity Test, cotton. The class given is in vivo. Further details: key: A rating of 1 indicates no perceptible injury; ratings of 2, 3 and 4 indicate intermediate degrees of injury; ratings of 2, 3 and 4 indicate intermediate degrees of injury; ratings of 2, 3 and 4 indicate intermediate degrees of injury; 5 indicates the plant was dead. To be noted: ten days. On the procedure: as §1, §2

In a further data set the test system is tomato. The data set is described as follows: Phytotoxicity Test, tomato. In kind it is in vivo. Further details: key: A rating of 1 indicates no perceptible injury; ratings of 2, 3 and 4 indicate intermediate degrees of injury; ratings of 2, 3 and 4 indicate intermediate degrees of injury; ratings of 2, 3 and 4 indicate intermediate degrees of injury; 5 indicates the plant was dead. The note with it: ten days. On the procedure:
as §1, §2

Data set [5] has as its system southern armyworm (Prodenia eridania, (Cram.)). In words: whole plant or invertebrate. To be noted: Spodoptera eridania, 72 h, read-out: Insect Toxicity, % Kill at 250 ppm, SAW.
Another data set deals with corn. The data set is described as follows: Phytotoxicity Test, corn. The class given is in vivo. Further details: key: A rating of 1 indicates no perceptible injury; ratings of 2, 3 and 4 indicate intermediate degrees of injury; ratings of 2, 3 and 4 indicate intermediate degrees of injury; ratings of 2, 3 and 4 indicate intermediate degrees of injury; 5 indicates the plant was dead. The note with it: ten days. On the procedure: as §1, §2

Usually LD50 stands for the dose at which mortality reaches 50%.

Regarding `CC(=NOC(=O)N(C)SN(C)C)SC(C)C` [Compound 24, S-Isopropyl-N-[N'-Methyl-N'-(Dimethylaminosulfenyl)carbamoloxy]thioacetimidate], the LD50 in “in vivo” was 28.3 mg/kg. The mortality at 250 ppm in data set [1], in data set [2], in data set [3], in [4] and in data set [5] was 100% throughout. Moreover, in the data set with soybeans, the “Crop Phytotoxicity, Injury Rating at 2500 ppm, SOYBN.” value (“Crop Phytotoxicity … SOYBN.” below) was determined as 3. In the data set with green beans, the “Crop Phytotoxicity, Injury Rating at 2500 ppm, GB” value (from here on “Crop Phytotoxicity … GB”) is 2. The “Crop Phytotoxicity, Injury Rating at 2500 ppm, COT.” value (shortened to “Crop Phytotoxicity … COT.”) in the data set on cotton came to 2. For the same compound, in the data set with tomato, the “Crop Phytotoxicity, Injury Rating at 2500 ppm, TOM” value (from here on “Crop Phytotoxicity … TOM”) came out at 2. In addition, the “Crop Phytotoxicity, Injury Rating at 2500 ppm, CN” value (“Crop Phytotoxicity … CN” below) in the data set with corn is listed as 1.
As for `CSC(C)=NOC(=O)N(SN1CCOCC1)C(C)C` [Compound 14, S-Methyl-N-[N'-Isopropyl-N'-(4-Morpholinosulfenyl)Carbamoyloxy]Thioacetimidate], the mortality at 250 ppm was found to be 0% in [1]; 0% in [2]; 0% in data set [3]; 100% in data set [4]; 0% in data set [5]. In addition, the “Crop Phytotoxicity … SOYBN.” value in the data set with soybeans is 1. Besides, the “Crop Phytotoxicity … GB” value in the data set on green beans amounted to 1. For the same compound, the “Crop Phytotoxicity … COT.” value with cotton worked out at 1. The “Crop Phytotoxicity … TOM” value with tomato was determined as 1. For the same compound, the “Crop Phytotoxicity … CN” value in the data set on corn is 1.
In turn, `CN(SN1CCOCC1)C(=O)ON=C1CSCCS1` [Compound 5, 2-N-[N'-Methyl-N'-(4-Morpholinosulfenyl)Carbamoyloxy]imino-1,4-Dithiane] displayed an LD50 in the data set “in vivo” of 19.8 mg/kg. Moreover, the mortality at 250 ppm in [1], in [2], in data set [3], in data set [4] and in data set [5] was 100% each time. In addition, the “Crop Phytotoxicity … SOYBN.” value in the data set with soybeans was 1. Further, the “Crop Phytotoxicity … GB” value with green beans is given as 1. Also, the “Crop Phytotoxicity … COT.” value with cotton was 1. The “Crop Phytotoxicity … TOM” value in the data set on tomato came to 1. Also, the “Crop Phytotoxicity … CN” value in the data set with corn is 1.
`CC(=NOC(=O)N(C)SN1CCOCC1)SC(C)C` [Compound 7, S-Isopropyl N-[N'-Methyl-N'-(4-Morpholinosulfenyl)carbamoyloxy]thioacetimidate]: the LD50 in the data set “in vivo” is 28.1 mg/kg. For the same compound, the mortality at 250 ppm in data set [1], in [2], in data set [3], in data set [4] and in data set [5] was 100% in each case. The “Crop Phytotoxicity … SOYBN.” value with soybeans is 1. Further, in the data set on green beans, the “Crop Phytotoxicity … GB” value is recorded as 2. Further, the “Crop Phytotoxicity … COT.” value in the data set with cotton turned out to be 1. For the same compound, the “Crop Phytotoxicity … TOM” value with tomato worked out at 1. For the same compound, the “Crop Phytotoxicity … CN” value in the data set with corn turned out to be 1.
`CSC(C)(C)C=NOC(=O)N(C)SN1CCOCC1` [Compound 6, 2-Methyl-2-(Methylthio)propionaldehyde O-[N-Methyl-N-(4-Morpholinosulfenyl)Carbamoyl]oxime] came in with an LD50 in the data set “in vivo” of 1.2 mg/kg. Besides, the mortality at 250 ppm amounted to 100% in data set [1]; 100% in data set [2]; 0% in [3]; 100% in data set [4]; 10% in [5]. Also, the “Crop Phytotoxicity … SOYBN.” value in the data set with soybeans stood at 1. Also, in the data set on green beans, the “Crop Phytotoxicity … GB” value was found to be 1. The “Crop Phytotoxicity … COT.” value in the data set on cotton amounted to 1. For the same compound, the “Crop Phytotoxicity … TOM” value in the data set with tomato amounted to 1. Also, the “Crop Phytotoxicity … CN” value with corn is reported as 1.
In turn, `CC1OCSC1=NOC(=O)N(C)SN1CCOCC1` (centres unmarked) [Compound 9, 5-Methyl-4-N-[N'-Methyl-N'-(4-Morpholinosulfenyl)carbamoyloxy]imino-1,3-Oxathiolane] showed a 50% lethal dose (LD50) in “in vivo” of 16 mg/kg. For the same compound, the mortality at 250 ppm in [1], in [2], in [3], in data set [4] and in data set [5] was 100% throughout. Further, in the data set with soybeans, the “Crop Phytotoxicity … SOYBN.” value worked out at 2. The “Crop Phytotoxicity … GB” value in the data set on green beans stood at 1. The “Crop Phytotoxicity … COT.” value with cotton is 1. For the same compound, the “Crop Phytotoxicity … TOM” value in the data set with tomato was 2. In the data set with corn, the “Crop Phytotoxicity … CN” value is given as 1.
As for `CN(SN1CCOCC1)C(=O)ON=C1SCC(=O)NC1(C)C` [Compound 16, 3,3-Dimethyl-2-N-[N'-Methyl-N'-(4-Morpholinosulfenyl)Carbamoyloxy]imino-5-Oxo-Perhydro-1,4-Thiazine], the mortality at 250 ppm in data set [1], in data set [2], in data set [3], in [4] and in data set [5] was 100% in each case. The “Crop Phytotoxicity … SOYBN.” value with soybeans is given as 1. In addition, the “Crop Phytotoxicity … GB” value in the data set on green beans is reported as 1. Further, the “Crop Phytotoxicity … COT.” value with cotton was 1. The “Crop Phytotoxicity … TOM” value with tomato is reported as 1. Also, in the data set on corn, the “Crop Phytotoxicity … CN” value is given as 1.
With `CN(SN1CCOCC1)C(=O)ON=CC(C)(C)C#N` [Compound 10, 2-Cyano-2-Methylpropionaldehyde O-[N-Methyl-N-(4-Morpholinosulfenyl)Carbamoyl]oxime], the mortality at 250 ppm in data set [1], in data set [2], in [3], in data set [4] and in data set [5] was 100% each time. Further, the “Crop Phytotoxicity … SOYBN.” value with soybeans is on record as 1. Also, in the data set on green beans, the “Crop Phytotoxicity … GB” value was determined as 1. For the same compound, in the data set with cotton, the “Crop Phytotoxicity … COT.” value is 3. In the data set on tomato, the “Crop Phytotoxicity … TOM” value was 1. Besides, the “Crop Phytotoxicity … CN” value in the data set with corn amounted to 1.
Turning to `CC(=NOC(=O)N(C)SN1CCOCC1)SCCC#N` [Compound 8, S-(2-Cyanoethyl)-N-[N'-Methyl-N'-(4-Morpholinosulfenyl)carbamoyloxy]thioacetimidate], the LD50 in the data set “in vivo” was 22 mg/kg. Also, the mortality at 250 ppm in data set [1], in data set [2], in data set [3], in data set [4] and in data set [5] was 100% throughout. Moreover, the “Crop Phytotoxicity … SOYBN.” value in the data set on soybeans was 1. For the same compound, the “Crop Phytotoxicity … GB” value with green beans amounted to 1. Further, in the data set on cotton, the “Crop Phytotoxicity … COT.” value was 1. Further, the “Crop Phytotoxicity … TOM” value with tomato worked out at 1. The “Crop Phytotoxicity … CN” value in the data set on corn is recorded as 1.
`CN(C)SN(C)C(=O)ON=C1CSCCS1` [Compound 23, 2-N-[N'-Methyl-N'-(Dimethylaminosulfenyl)carbamoyloxy]imino-1,4-Dithiane] had an LD50 in the data set “in vivo” of 15 mg/kg. In addition, the mortality at 250 ppm in [1], in data set [2], in data set [3], in data set [4] and in [5] was 100% in each case. In the data set on soybeans, the “Crop Phytotoxicity … SOYBN.” value is recorded as 1. The “Crop Phytotoxicity … GB” value with green beans is 1. In the data set on cotton, the “Crop Phytotoxicity … COT.” value was 2. For the same compound, the “Crop Phytotoxicity … TOM” value in the data set with tomato amounted to 1. Besides, the “Crop Phytotoxicity … CN” value in the data set on corn is on record as 1.
